Laboratory results: PubChem BioAssay AID2060501 (Molecular Pharmacology Branch, DTP, NCI, 2025)

Test system: 282377-053-R-J1-PDC complex spheroids, viability
Test: Anticancer human tumor 282377-053-R-J1-PDC patient-derived colon adenocarcinoma cell line growth inhibition [GQUAD]
Settings: for IC50: curve of first compound; for viability, T/C: stronger effect = lower value
Method in brief: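 Viability of tumor cells grown as complex spheroids with endothelial and stromal cells, exposed to drug combinations. Top concentration at or near clinical Cmax (else 10 microM), diluted in half-log increments.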

[1] = second compound 0.0316 µM, first compound 0.0316 µM
[2] = second compound 0.0316 µM, first compound 0.1 µM
[3] = second compound 0.0316 µM, first compound 0.316 µM
[4] = second compound 0.0316 µM, first compound 1 µM
[5] = second compound 0.0316 µM, first compound 3.16 µM
[6] = second compound 0.0316 µM, first compound 10 µM
[7] = second compound 0.1 µM, first compound 0.0316 µM
[8] = second compound 0.1 µM, first compound 0.1 µM
[9] = second compound 0.1 µM, first compound 0.316 µM
[10] = second compound 0.1 µM, first compound 1 µM
[11] = second compound 0.1 µM, first compound 3.16 µM
[12] = second compound 0.1 µM, first compound 10 µM
[13] = second compound 0.316 µM, first compound 0.0316 µM
[14] = second compound 0.316 µM, first compound 0.1 µM
[15] = second compound 0.316 µM, first compound 0.316 µM
[16] = second compound 0.316 µM, first compound 1 µM
[17] = second compound 0.316 µM, first compound 3.16 µM
[18] = second compound 0.316 µM, first compound 10 µM
[19] = second compound 1 µM, first compound 0.0316 µM
[20] = second compound 1 µM, first compound 0.1 µM
[21] = second compound 1 µM, first compound 0.316 µM
[22] = second compound 1 µM, first compound 1 µM
[23] = second compound 1 µM, first compound 3.16 µM
[24] = second compound 1 µM, first compound 10 µM
[25] = second compound 3.16 µM, first compound 0.0316 µM
[26] = second compound 3.16 µM, first compound 0.1 µM
[27] = second compound 3.16 µM, first compound 0.316 µM
[28] = second compound 3.16 µM, first compound 1 µM
[29] = second compound 3.16 µM, first compound 3.16 µM
[30] = second compound 3.16 µM, first compound 10 µM
[31] = second compound 10 µM, first compound 0.0316 µM
[32] = second compound 10 µM, first compound 0.1 µM
[33] = second compound 10 µM, first compound 0.316 µM
[34] = second compound 10 µM, first compound 1 µM
[35] = second compound 10 µM, first compound 3.16 µM
[36] = second compound 10 µM, first compound 10 µM
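Also: spheroids exposed to compounds for 7 days before readout.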
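For viability, T/C in this document: percent of vehicle DMSO control viability with 100% = untreated-like growth.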

`CCCS(=O)(=O)Nc1ccc(F)c(C(=O)c2c[nH]c3ncc(-c4ccc(Cl)cc4)cc23)c1F` + CN(C)c1ccc(Nc2c3ccc(NC(=O)CCN4CCCC4)cc3nc3cc(NC(=O)CCN4CCCC4)ccc23)cc1 was tested. Which IC50 (second compound 0.0316 µM) did it give?
Its IC50 is 4.49 µM.

What about the IC50 (second compound 0.1 µM) of the same compound?
Its IC50 is 3.49 µM.

And the IC50 (second compound 0.316 µM)?
Its IC50 is 2.96 µM.

What about the IC50 (second compound 1 µM) of the same compound?
The IC50 was 3.87 µM.

And the IC50 (second compound 3.16 µM)?
Its IC50 is 3.32 µM.

What about the IC50 (second compound 10 µM) of the same compound?
The IC50 was 3.74 µM.

What about the viability, T/C [1] of the same compound?
Its viability, T/C is 81%.

What about the viability, T/C [2] of the same compound?
Its viability, T/C is 66%.

What about the viability, T/C [3] of the same compound?
Its viability, T/C is 58%.

What about the viability, T/C [4] of the same compound?
The viability, T/C was 69.9%.

What about the viability, T/C [5] of the same compound?
Its viability, T/C is 64.5%.

And the viability, T/C [6]?
The viability, T/C was 16.9%.

And the viability, T/C [7]?
Its viability, T/C is 68.1%.

What about the viability, T/C [8] of the same compound?
The viability, T/C was 56%.

What about the viability, T/C [9] of the same compound?
Its viability, T/C is 59.3%.

And the viability, T/C [10]?
Its viability, T/C is 61.4%.

And the viability, T/C [11]?
The viability, T/C was 52.8%.

What about the viability, T/C [12] of the same compound?
Its viability, T/C is 19.4%.

And the viability, T/C [13]?
The viability, T/C was 74.8%.

What about the viability, T/C [14] of the same compound?
The viability, T/C was 65.7%.

And the viability, T/C [15]?
Its viability, T/C is 74.7%.

And the viability, T/C [16]?
Its viability, T/C is 49.3%.

And the viability, T/C [17]?
Its viability, T/C is 57.2%.

What about the viability, T/C [18] of the same compound?
The viability, T/C was 15.6%.

And the viability, T/C [19]?
Its viability, T/C is 79.8%.

And the viability, T/C [20]?
Its viability, T/C is 60.9%.

What about the viability, T/C [21] of the same compound?
The viability, T/C was 89.3%.

And the viability, T/C [22]?
The viability, T/C was 57.6%.

And the viability, T/C [23]?
Its viability, T/C is 59.2%.

And the viability, T/C [24]?
The viability, T/C was 23.6%.

And the viability, T/C [25]?
The viability, T/C was 73.3%.

What about the viability, T/C [26] of the same compound?
The viability, T/C was 72.5%.

And the viability, T/C [27]?
The viability, T/C was 68.7%.

And the viability, T/C [28]?
The viability, T/C was 67.1%.

What about the viability, T/C [29] of the same compound?
The viability, T/C was 50.6%.

And the viability, T/C [30]?
Its viability, T/C is 21.6%.

And the viability, T/C [31]?
The viability, T/C was 82.1%.

What about the viability, T/C [32] of the same compound?
Its viability, T/C is 70.6%.

What about the viability, T/C [33] of the same compound?
Its viability, T/C is 75.6%.

What about the viability, T/C [34] of the same compound?
Its viability, T/C is 52.3%.

And the viability, T/C [35]?
Its viability, T/C is 65%.

And the viability, T/C [36]?
Its viability, T/C is 14.2%.

Which results are given for `Nc1ccn(C2OC(CO)C(O)C2(F)F)c(=O)n1` (stereo unspecified) + CN(C)c1ccc(Nc2c3ccc(NC(=O)CCN4CCCC4)cc3nc3cc(NC(=O)CCN4CCCC4)ccc23)cc1?
IC50 (second compound 0.0316 µM): 0.29 µM; IC50 (second compound 0.1 µM): 0.296 µM; IC50 (second compound 0.316 µM): 0.263 µM; IC50 (second compound 1 µM): 0.271 µM; IC50 (second compound 3.16 µM): 0.227 µM; IC50 (second compound 10 µM): 0.228 µM; viability, T/C [1]: 112%; viability, T/C [2]: 68.5%; viability, T/C [3]: 49.7%; viability, T/C [4]: 35.8%; viability, T/C [5]: 32.5%; viability, T/C [6]: 20.7%; viability, T/C [7]: 114%; viability, T/C [8]: 78.7%; viability, T/C [9]: 42.9%; viability, T/C [10]: 37.7%; viability, T/C [11]: 30.8%; viability, T/C [12]: 20.3%; viability, T/C [13]: 115%; viability, T/C [14]: 77.9%; viability, T/C [15]: 40.9%; viability, T/C [16]: 35.8%; viability, T/C [17]: 33.7%; viability, T/C [18]: 19.7%; viability, T/C [19]: 95%; viability, T/C [20]: 77.6%; viability, T/C [21]: 42.7%; viability, T/C [22]: 35.7%; viability, T/C [23]: 32.7%; viability, T/C [24]: 20.3%; viability, T/C [25]: 87.6%; viability, T/C [26]: 59.9%; viability, T/C [27]: 44.5%; viability, T/C [28]: 38.3%; viability, T/C [29]: 38.5%; viability, T/C [30]: 26.9%; viability, T/C [31]: 92.1%; viability, T/C [32]: 74%; viability, T/C [33]: 40.2%; viability, T/C [34]: 30.9%; viability, T/C [35]: 36.3%; viability, T/C [36]: 22.8%

Which IC50 (second compound 0.0316 µM) does the source give for `O=c1[nH]cc(F)c(=O)[nH]1` + CN(C)c1ccc(Nc2c3ccc(NC(=O)CCN4CCCC4)cc3nc3cc(NC(=O)CCN4CCCC4)ccc23)cc1 here?
The IC50 was > 10 µM.

What about the IC50 (second compound 0.1 µM) of the same compound?
The IC50 was > 10 µM.

And the IC50 (second compound 0.316 µM)?
The IC50 was > 10 µM.

And the IC50 (second compound 1 µM)?
Its IC50 is > 10 µM.

What about the IC50 (second compound 3.16 µM) of the same compound?
The IC50 was > 10 µM.

And the IC50 (second compound 10 µM)?
The IC50 was > 10 µM.

And the viability, T/C [1]?
Its viability, T/C is 95.5%.

What about the viability, T/C [2] of the same compound?
The viability, T/C was 87.1%.

And the viability, T/C [3]?
The viability, T/C was 110%.

And the viability, T/C [4]?
The viability, T/C was 81%.

What about the viability, T/C [5] of the same compound?
Its viability, T/C is 73.4%.

What about the viability, T/C [6] of the same compound?
The viability, T/C was 74.1%.

And the viability, T/C [7]?
The viability, T/C was 101%.

What about the viability, T/C [8] of the same compound?
The viability, T/C was 93.1%.

What about the viability, T/C [9] of the same compound?
Its viability, T/C is 104%.

And the viability, T/C [10]?
Its viability, T/C is 88.8%.

What about the viability, T/C [11] of the same compound?
The viability, T/C was 74.5%.

And the viability, T/C [12]?
The viability, T/C was 73.2%.

And the viability, T/C [13]?
Its viability, T/C is 106%.

What about the viability, T/C [14] of the same compound?
The viability, T/C was 94.3%.

What about the viability, T/C [15] of the same compound?
The viability, T/C was 106%.

And the viability, T/C [16]?
The viability, T/C was 96%.

And the viability, T/C [17]?
The viability, T/C was 67.8%.

And the viability, T/C [18]?
Its viability, T/C is 73.8%.

And the viability, T/C [19]?
The viability, T/C was 108%.

What about the viability, T/C [20] of the same compound?
The viability, T/C was 94.4%.

And the viability, T/C [21]?
The viability, T/C was 106%.

What about the viability, T/C [22] of the same compound?
The viability, T/C was 89.9%.

What about the viability, T/C [23] of the same compound?
The viability, T/C was 77.8%.

What about the viability, T/C [24] of the same compound?
Its viability, T/C is 69%.

And the viability, T/C [25]?
The viability, T/C was 83.1%.

What about the viability, T/C [26] of the same compound?
Its viability, T/C is 75.7%.

What about the viability, T/C [27] of the same compound?
Its viability, T/C is 89.2%.

And the viability, T/C [28]?
The viability, T/C was 79.1%.

And the viability, T/C [29]?
Its viability, T/C is 68.2%.

What about the viability, T/C [30] of the same compound?
Its viability, T/C is 64.5%.

What about the viability, T/C [31] of the same compound?
Its viability, T/C is 92.8%.

What about the viability, T/C [32] of the same compound?
The viability, T/C was 81.3%.

What about the viability, T/C [33] of the same compound?
Its viability, T/C is 88.5%.

And the viability, T/C [34]?
The viability, T/C was 81.7%.

And the viability, T/C [35]?
The viability, T/C was 70.1%.

What about the viability, T/C [36] of the same compound?
The viability, T/C was 57.9%.
